Source: patent US8445684B2, “Nicotinic acetylcholine receptor ligands and the uses thereof” (PsycoGenics Inc., priority 2008, dated 2013)
pKi: −log10 of the molar value. Values joined by “and” are separate entries in the source; they are usually repeats but may differ in a detail not shown here. Identical values can stand only once. Marks after values point to notes of the source that are not given here.

Tests used:
[1] = molecular target: T1, α4β2 nicotinic receptor (Rattus norvegicus, UniProt P09483+P12390); experiment: biochemical; type: binding
T1 construct: expressed in transfected cells; host or cells: stably transfected cell lines (e.g., HEK293, COS, CHO, NIH3T3)
T1 sequence (P09483 31-630): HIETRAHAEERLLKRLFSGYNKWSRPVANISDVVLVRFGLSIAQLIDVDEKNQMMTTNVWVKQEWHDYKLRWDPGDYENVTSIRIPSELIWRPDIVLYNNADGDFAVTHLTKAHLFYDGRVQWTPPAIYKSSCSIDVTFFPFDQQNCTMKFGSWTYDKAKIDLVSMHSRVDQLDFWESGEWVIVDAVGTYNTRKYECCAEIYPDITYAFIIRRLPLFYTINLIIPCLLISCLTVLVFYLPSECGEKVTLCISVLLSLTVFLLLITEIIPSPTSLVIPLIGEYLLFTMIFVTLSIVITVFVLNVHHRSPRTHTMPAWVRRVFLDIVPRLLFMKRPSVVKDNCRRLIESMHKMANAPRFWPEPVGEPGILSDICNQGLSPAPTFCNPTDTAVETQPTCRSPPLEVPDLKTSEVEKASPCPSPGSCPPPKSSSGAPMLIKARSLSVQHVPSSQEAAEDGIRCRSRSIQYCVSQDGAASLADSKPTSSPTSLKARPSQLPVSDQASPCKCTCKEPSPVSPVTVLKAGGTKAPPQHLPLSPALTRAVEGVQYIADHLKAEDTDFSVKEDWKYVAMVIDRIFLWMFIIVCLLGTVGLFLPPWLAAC
T1 sequence (P12390 25-500): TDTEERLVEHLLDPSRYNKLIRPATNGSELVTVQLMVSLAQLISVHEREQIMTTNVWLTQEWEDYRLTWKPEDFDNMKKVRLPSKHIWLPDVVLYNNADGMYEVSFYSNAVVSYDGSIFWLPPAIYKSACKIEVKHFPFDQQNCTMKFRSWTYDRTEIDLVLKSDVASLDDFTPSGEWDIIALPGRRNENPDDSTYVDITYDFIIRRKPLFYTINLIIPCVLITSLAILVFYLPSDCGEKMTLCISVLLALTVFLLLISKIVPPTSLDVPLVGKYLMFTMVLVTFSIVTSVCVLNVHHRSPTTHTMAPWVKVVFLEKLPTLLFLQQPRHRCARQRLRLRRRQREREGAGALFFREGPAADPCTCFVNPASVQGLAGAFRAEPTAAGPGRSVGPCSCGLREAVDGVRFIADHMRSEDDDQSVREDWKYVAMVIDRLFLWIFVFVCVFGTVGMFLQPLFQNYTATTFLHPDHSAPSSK
Protocol: (§1) All binding assays were performed according to procedures set forth in the University of North Carolina at Chapel Hill National Institute of Mental Health Psychoactive Drug Screening Program Assay Protocol Book (pp. 50-54; PI: Bryan L. Roth MD, PhD).
(§2) Nicotinic receptors: α2β2, α2β4, α3β2, α3β4, α4β2, α4β4, endogenous α4β2. Assay buffer: 50 mM Tris-HCl, pH 7.4. Membrane fraction source: Stably transfected cell lines (e.g., HEK293, COS, CHO, NIH3T3) (α2β2, α2β4, α3β2, α3β4, α4β2, α4β4) or rat forebrain (α4β2).
(§3) Aliquots (50 μl) of radioligand were dispensed into the wells of a 96-well plate containing 100 μl of assay buffer. Then, duplicate 50-μl aliquots of the test and reference compound dilutions were added.
(§4) Finally, crude membrane fractions of cells expressing recombinant target (prepared from 10-cm plates by harvesting PBS-rinsed monolayers, resuspending and lysing in chilled, hypotonic 50 mM Tris-HCl, pH 7.4, centrifuging at 20,000×g, decanting the supernatant and storing at −80° C.; typically, one 10-cm plate provides sufficient material for 24 wells) were resuspended in 3 ml of chilled assay buffer and homogenized by several passages through a 26 gauge needle, then 50 μl were dispensed into each well.
(§5) The 250-μl reactions were incubated at room temperature and shielded from light (to prevent photolysis of light-sensitive ligands) for 4 hours, then harvested by rapid filtration onto Whatman GF/B glass fiber filters pre-soaked with 0.5% polyethyleneimine using a 96-well Brandel harvester. Four rapid 500-μl washes were performed with chilled Standard Binding Buffer to reduce non-specific binding. Filters were placed in 6-ml scintillation tubes and allowed to dry overnight. The next day, 4 ml of EcoScint scintillation cocktail (National Diagnostics) were added to each tube. The tubes were capped, labeled, and counted by liquid scintillation counting.
(§6) Raw data (dpm) representing total radioligand binding (i.e., specific+non-specific binding) were plotted as a function of the logarithm of the molar concentration of the competitor (i.e., test or reference compound).

[2] = molecular target: T2, α3β2 nicotinic receptor (Rattus norvegicus, UniProt P04757+P12390); experiment: biochemical; type: binding
T2 construct: expressed in transfected cells; host or cells: stably transfected cell lines (e.g., HEK293, COS, CHO, NIH3T3)
T2 sequence (P12390 25-500): as above
T2 sequence (P04757 26-499): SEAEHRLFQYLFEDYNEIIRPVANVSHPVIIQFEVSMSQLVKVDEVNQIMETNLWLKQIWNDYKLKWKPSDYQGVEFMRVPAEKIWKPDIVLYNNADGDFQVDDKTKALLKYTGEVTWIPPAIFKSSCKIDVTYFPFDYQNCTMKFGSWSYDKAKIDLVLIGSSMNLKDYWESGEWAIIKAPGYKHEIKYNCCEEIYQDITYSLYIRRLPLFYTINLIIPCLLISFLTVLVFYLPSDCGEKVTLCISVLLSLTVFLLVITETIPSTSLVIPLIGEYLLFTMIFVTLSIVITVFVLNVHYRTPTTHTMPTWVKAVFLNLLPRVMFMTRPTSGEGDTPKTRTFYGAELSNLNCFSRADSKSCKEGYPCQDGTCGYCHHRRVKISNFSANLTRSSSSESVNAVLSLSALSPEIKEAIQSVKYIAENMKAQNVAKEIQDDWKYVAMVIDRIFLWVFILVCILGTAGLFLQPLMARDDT
Protocol: as §1, §2, §3, §4, §5, §6

[3] = molecular target: T3, α2β4 nicotinic receptor (Rattus norvegicus, UniProt P12389+P12392); experiment: biochemical; type: binding
T3 construct: expressed in transfected cells; host or cells: stably transfected cell lines (e.g., HEK293, COS, CHO, NIH3T3)
T3 sequence (P12392 21-495): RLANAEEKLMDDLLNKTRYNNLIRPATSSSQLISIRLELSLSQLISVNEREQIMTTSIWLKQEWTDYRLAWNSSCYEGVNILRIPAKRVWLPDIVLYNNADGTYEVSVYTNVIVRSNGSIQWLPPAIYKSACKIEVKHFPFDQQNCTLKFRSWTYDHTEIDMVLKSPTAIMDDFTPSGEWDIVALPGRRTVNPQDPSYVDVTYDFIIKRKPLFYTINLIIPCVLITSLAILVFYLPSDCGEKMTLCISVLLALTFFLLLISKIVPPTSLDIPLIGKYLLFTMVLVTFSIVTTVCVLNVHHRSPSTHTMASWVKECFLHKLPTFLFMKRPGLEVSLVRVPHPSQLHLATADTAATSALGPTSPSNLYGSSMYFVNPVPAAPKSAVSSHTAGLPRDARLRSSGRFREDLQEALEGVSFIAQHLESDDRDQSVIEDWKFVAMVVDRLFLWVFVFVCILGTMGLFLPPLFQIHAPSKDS
T3 sequence (P12389 28-511): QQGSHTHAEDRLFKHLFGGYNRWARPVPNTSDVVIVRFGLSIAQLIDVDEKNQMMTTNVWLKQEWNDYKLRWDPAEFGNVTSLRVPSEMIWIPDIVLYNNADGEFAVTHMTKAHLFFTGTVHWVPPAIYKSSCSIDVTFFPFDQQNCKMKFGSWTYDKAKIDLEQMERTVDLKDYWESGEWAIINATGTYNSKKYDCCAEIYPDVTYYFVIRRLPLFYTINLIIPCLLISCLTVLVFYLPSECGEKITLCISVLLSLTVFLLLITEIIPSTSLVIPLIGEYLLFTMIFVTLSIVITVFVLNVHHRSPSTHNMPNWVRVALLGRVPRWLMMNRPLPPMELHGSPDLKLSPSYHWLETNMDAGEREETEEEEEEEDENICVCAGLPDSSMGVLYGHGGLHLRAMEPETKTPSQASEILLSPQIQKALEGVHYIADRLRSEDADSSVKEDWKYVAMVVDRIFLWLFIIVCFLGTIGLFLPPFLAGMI
Protocol: as §1, §2, §3, §4, §5, §6

[4] = molecular target: T4, α2β2 nicotinic receptor (Rattus norvegicus, UniProt P12389+P12390); experiment: biochemical; type: binding
T4 construct: expressed in transfected cells; host or cells: stably transfected cell lines (e.g., HEK293, COS, CHO, NIH3T3)
T4 sequence (P12390 25-500): as the sequence (P12390 25-500) above
T4 sequence (P12389 28-511): as the sequence (P12389 28-511) above
Protocol: as §1, §2, §3, §4, §5, §6

[5] = molecular target: T5, α4β4 nicotinic receptor (Rattus norvegicus, UniProt P09483+P12392); experiment: biochemical; type: binding
T5 construct: expressed in transfected cells; host or cells: stably transfected cell lines (e.g., HEK293, COS, CHO, NIH3T3)
T5 sequence (P09483 31-630): as the sequence (P09483 31-630) above
T5 sequence (P12392 21-495): as the sequence (P12392 21-495) above
Protocol: as §1, §2, §3, §4, §5, §6

[6] = molecular target: T6, α4β2* (endogenous α4β2, rat forebrain) (Rattus norvegicus, UniProt P09483+P12390); experiment: biochemical; type: binding
T6 construct: from tissue; host or cells: rat forebrain
T6 sequence (P09483 31-630): as the sequence (P09483 31-630) above
T6 sequence (P12390 25-500): as the sequence (P12390 25-500) above
Protocol: as §1, §2, §3, §4, §5, §6

[7] = molecular target: T7, α3β4 nicotinic receptor (Rattus norvegicus, UniProt P04757+P12392); experiment: biochemical; type: binding
T7 construct: expressed in transfected cells; host or cells: stably transfected cell lines (e.g., HEK293, COS, CHO, NIH3T3)
T7 sequence (P04757 26-499): as the sequence (P04757 26-499) above
T7 sequence (P12392 21-495): as the sequence (P12392 21-495) above
Protocol: as §1, §2, §3, §4, §5, §6

[8] = system: male Balb/cJ mice; experiment: Forced swim test in mice; type: in vivo
Protocol: Subjects. The subjects were male Balb/cJ mice obtained from Jackson Laboratory, Bar Harbor, Me. Mice were housed 4 per cage under controlled conditions of temperature, relative humidity and light-dark cycle with free access to food and water.
Procedures. […] Mice were individually placed into clear glass cylinders (i.e., 15 cm tall×10 cm wide, 1 L beakers) containing 23±1° C. water 12 cm deep (approximately 800 mL). The time the animal spent immobile was recorded over a 6 min trial. Immobility was described as the postural position of floating in the water.
Drugs. […] The mice were injected intraperitoneally (i.p.) 30 minutes before the start of the test. In another set of experiments, the test compounds were administered orally (p.o.) 30 minutes before the start of the test.
Statistics. The length of time spent floating was analyzed by Analysis of Variance (ANOVA) with dose of drug as the between-subject factor and time spent immobile across the 6 min test as the dependent variable. Post-hoc comparisons between the treatment groups and control group were made using Fisher's PLSD test. A significance level of 5% was used throughout.

Row | Compound | pKi [1] | pKi [2] | pKi [3] | pKi [4] | pKi [6] | effect in the forced swim test as indicated by a reduction in immobility time ([8]; mouse, in vivo, ip) | other results
1 | OCCCC[C@H]1C[C@@H]1c1cncc(OC[C@@H]2CCN2)c1 | 9.30 | 8.19 | 6.92 | 9.22 | 8.85 | – | pKi [5]: 6.62
2 | FCC[C@H]1C[C@@H]1c1cncc(OC[C@@H]2CCN2)c1 | 9.00 | 7.47 | 6.18 | 8.19 | 7.96 | – | pKi [5]: 5.89; pKi [7]: < 5.00
3 | OCCCCC#Cc1cncc(OC[C@@H]2CCN2)c1 [AMOP-H-OH, reference compound] | – | – | – | – | – | positive effects | –
4 | OCC[C@H]1C[C@@H]1c1cncc(OC[C@@H]2CCN2)c1 [Example 2, 2-[(1R,2S)-2-[5-[(2(S)-Azetidinyl)methoxy]-3-pyridyl]cyclopropyl]ethanol] | – | – | – | – | – | positive effects | –
5 | OCCCc1cccc(-c2cncc(OC[C@@H]3CCN3)c2)c1 [Example 15c, 3-[3-[5-[(2(S)-Azetidinyl)methoxy]-3-pyridyl]phenyl]-1-propanol] | – | – | – | – | – | positive effects | reduction in immobility time compared to vehicle ([8]; mouse, in vivo): 24.5 s; Average Immobility Time ([8]; mouse, in vivo, ip, 5 mg/kg): 110.6 s; Average Immobility Time ([8]; mouse, in vivo, ip, 10 mg/kg): 105.1** seconds and 85.3** seconds; Average Immobility Time ([8]; mouse, in vivo, ip, 20 mg/kg): 49.7** seconds
6 | CN[C@H]1CC[C@@H](c2ccc(Cl)c(Cl)c2)c2ccccc21 [Sertraline, sertraline, reference compound] | – | – | – | – | – | – | Average Immobility Time ([8]; Table 2, 20 mg/kg i.p., 30 min before test, 6 min trial, vehicle 126.3, ** = significantly different from vehicle): 11.9** seconds
7 | OCC[C@H]1C[C@@H]1c1cncc(OC[C@@H]2CCN2)c1 [drawing 715] | 9.52 | 8.29 | 7.21 | 9.05 | 8.92 | – | pKi [7]: 6.19
